Measured values published in US10675275B2, “Prophylactic and/or therapeutic agent for fibromyalgia” (ONO PHARMACEUTICAL CO., LTD., priority 2015, dated 2020).
Counter-ions that a name gives are not always drawn.

Tested on: rat somatic hyperalgesia model
Assay: Efficacy in a rat somatic hyperalgesia model (acid saline, Randall-Selitto pain threshold)
Type: in vivo
Conditions: SD male rats, right hind paw (non-challenged side), oral
Description: SD male rats (Charles River Laboratories Japan, Inc., 5 weeks old upon usage) were used. Under isoflurane anaesthesia, rats were intramuscularly administered with 100 μL of acidic saline of pH 4.0 in the left gastrocnemius. After 5 days of administration, rats again received 100 μL of acid saline in the left gastrocnemius. In the normal group, rats were intramuscularly administered with 100 μL of saline twice in total with 5 days apart in the left gastrocnemius (see Muscle Nerve, vol. 24, pp. 37-46, 2001).
The pain threshold was measured on a Randall-Selitto pressure analgesy-meter (Ugo Basile). Briefly, rats were securely fixed and uniformly and continuously increasing pressure was applied to the hind paws. […] For each of the left and right hind paws, tests were carried out three times at each evaluation point and the values were averaged to obtain the pain threshold.
For the normal group, rats were arbitrarily selected from those showing the pain threshold on the day before the first administration of acid saline of 140 g or more for both left and right hind paws. After being divided into groups, administration of the test compound (the present compound (the compound described in Example 38 of PTL 1), comparative compound A (the compound described in Example 38(5) of PTL 1), comparative compound B (the compound described in Example 41(2) of PTL 1), comparative compound C (1-(2-chlorophenyl)-N-methyl-N-(1-methylpropyl)isoquinoline-3-carboxamide (PK11195), CAS registry No.: 85532-75-8), a control substance (duloxetine hydrochloride, pregabalin) or a vehicle (0.5 w/v % methylcellulose 400 cP solution)) was started on the same day. On day 1 and day 7 of administration of each drug solution, the pain threshold on left and right hind paws was measured in a blind manner 2 hours after the first administration. Duloxetine hydrochloride was orally administered once a day and other agents were orally administered twice a day.

For CCC(C)N(C)C(=O)c1cc2ccccc2c(-c2ccccc2Cl)n1 (centres unmarked) [comparative compound C, 1-(2-chlorophenyl)-N-methyl-N-(1-methylpropyl)isoquinoline-3-carboxamide], the “pain threshold (efficacy for the pain threshold decreased in the control group)” value (day 7, before and 2 hours after administration, 1 mg/kg, twice a day) was “did not show the efficacy”.

For CNCC[C@H](Oc1cccc2ccccc12)c1cccs1 [duloxetine hydrochloride], the “pain threshold (suppression of the decrease caused by acid saline)” value (day 7, before and 2 hours after administration, 30 mg/kg, once a day) was “suppressed this decrease of the pain threshold”.

For CC(C)C[C@H](CN)CC(=O)O [pregabalin], the “pain threshold (suppression of the decrease caused by acid saline)” value (day 7, before and 2 hours after administration, 20 mg/kg, twice a day) was “suppressed this decrease of the pain threshold”.

COc1cc(Cl)ccc1[C@H]1c2[nH]c3cccc(F)c3c2C2(CC2)CN1C(C)=O [the present compound, (1S)-2-acetyl-1-(4-chloro-2-methoxyphenyl)-5-fluoro-1,2,3,9-tetrahydrospiro[β-carboline-4,1′-cyclopropane]] was tested, and the “pain threshold (suppression of the decrease caused by acid saline)” value (day 7 of administration, before and 2 hours after administration, 0.1, 1 or 10 mg/kg, twice a day) was “significant suppression” and the “pain threshold (suppression of the decrease caused by acid saline)” value (day 7 of administration, before and 2 hours after administration, 0.1, 1 or 10 mg/kg, twice a day, listed as The present compound) was “suppressed this decrease of the pain threshold”.
